Data set [1] concerns platelets. Nature of the data set: Platelet spreading on vWF-coated surface. The format is cell-based, human. The conditions noted are these: FIG. 3C. The protocol: Platelets were allowed to adhere and spread on 10 μg/ml vWF-coated glass chamber slides (Nunc) at 37° C. for 1 hour. After three washes, platelets were fixed by adding 4% paraformaldehyde in PBS. Platelets were permeabilized by adding 0.1 M Tris, 0.01 M EGTA, 0.15 M NaCl, 5 mM MgCl2, pH 7.4, containing 0.1% Triton X-100, 0.5 mM leupeptin, 1 mM PMSF, and 0.1 mM E64, and then incubated with 20 μg/ml of anti-GPIba antibody (anti-IbαC) at 22° C. for 1 hour. Platelets were further incubated with fluorescein-labeled secondary antibody at 22° C. for 30 mm. After additional washes, platelets were scanned under a Zeiss LSM 510 confocai microscope (Magnification=630×).
In FIG. 3A, platelet rich-plasma (PRP) was preincubated at 37° C. for 5 mm with PKG inhibitors KT5823 (2 pM) or Rp-8pCPT-cGMP (0.2 μM). PRP was also incubated with DMSO (vehicle for KT5823), a PKA inhibitor, KT5720 (2 pM), or buffer (Control). The vWF modulator, ristocetin, was then added to induce vWF-GPIb-IX interaction. […] In FIG. 3B, a subthreshold concentration of ristocetin was added to PRP immediately followed by addition of 8-bromo-cGMP or buffer (Control). PRP also was preincubated with integrin inhibitor RGDS before adding ristocetin and 8-bromo-cGMP. In FIG. 3C, platelets were preincubated with or without PKG inhibitor KT5823, then allowed to spread on vWF-coated glass chamber slides. […]

For data set [2], the system named is platelets. As to the kind of experiment: Ristocetin-induced vWF-dependent platelet aggregation in platelet-rich plasma. The format is cell-based, human. The procedure: (§1) Fresh blood from healthy volunteers was anticoagulated with 1/7 volume of ACD (2.5% trisodium citrate, 2% dextrose and 1.5% citric acid). Platelets were washed with CGS buffer (sodium chloride 0.12 M, trisodium citrate 0.0129 M and d-glucose 0.03 M, pH 6.5), resuspended in modified Tyrode's solution and allowed to incubate at 22° C. for 1 hours as previously described. In experiments using platelet-rich plasma (PRP), 1/10 volume of 3.8% trisodium citrate was used as anticoagulant. Platelet aggregation was measured using a turbidometric platelet aggregometer (Chrono-Log) at 37° C. vWF-dependent platelet aggregation was induced by addition of ristocetin or botrocetin to PRP. To differentiate CPIb-IX-mediated platelet agglutination from the second wave of integrin-dependent platelet aggregation, final concentrations of ristocetin were adjusted in each experiment to achieve a two-wave curve of aggregation. Washed platelets were used in platelet aggregation induced by a-thrombin (Enzyme Research Laboratories). To examine the effects of PKG, 100 μM of membrane permeable cGMP analogs, 8-bromo-cGMP or 8-dibutyl-cGMP (Calbiochem), or 1 μM sildenafil citrate (Pfizer) and added simultaneously with subthreshold concentrations of agonists. PKG inhibitors KT5823 (2 pM) and Rp-8PCPT-cGMP (0.2 mM) were preincubated with platelets at 37° C. for 5 minutes before addition of agonists.
In FIG. 3A, platelet rich-plasma (PRP) was preincubated at 37° C. for 5 mm with PKG inhibitors KT5823 (2 pM) or Rp-8pCPT-cGMP (0.2 μM). PRP was also incubated with DMSO (vehicle for KT5823), a PKA inhibitor, KT5720 (2 pM), or buffer (Control). The vWF modulator, ristocetin, was then added to induce vWF-GPIb-IX interaction. […] In FIG. 3B, a subthreshold concentration of ristocetin was added to PRP immediately followed by addition of 8-bromo-cGMP or buffer (Control). PRP also was preincubated with integrin inhibitor RGDS before adding ristocetin and 8-bromo-cGMP. In FIG. 3C, platelets were preincubated with or without PKG inhibitor KT5823, then allowed to spread on vWF-coated glass chamber slides. Platelets were stained with an anti-GPIb antibody, and fluorescein-labeled secondary antibody. The slides were imaged under a confocal microscope (magnification =630×).
(§2) In FIG. 6A, increasing concentrations of sildenafil or control 0.15 M NaCl solution were added to platelet-rich plasma followed by a subthreshold concentration of ristocetin. Platelet aggregation was recorded using a platelet aggregometer. In FIG. 6B, sildenafil or control buffer was added to washed platelets followed by addition of subthreshold doses of thrombin to induce platelet aggregation. It was noted that platelet aggregation occurs in the presence of sildenafil. The figure includes the representative results of at least three experiments.
(§3) In FIG. 7A, PRP was preincubated with 0.1 mM 8-bromo-cGMP for increasing lengths of time at 37° C. as indicated. The vWF modulator, ristocetin (1.25 mg/ml), then was added to induce platelet aggregation in a turbidometric platelet aggregometer. In FIG. 7B, PRP was preincubated with a high concentration of 8-bromo-cGMP (1 mM) for 5 minutes. Ristocetin then was added to induce platelet aggregation. In FIGS. 7C and 7D, washed platelets in modified Tyrode's solution were preincubated with 1 mM 8-bromo-cGMP (C), or various concentrations of 8-pCPT-cGMP (D) at 37° C. for 5 minutes. Thrombin (0.05 u/ml) then was added to induce platelet aggregation.

In data set [3] the test system is 123 cells (CHO cells expressing recombinant human GPIb-IX and integrin αIIbβ3). As to the kind of experiment: vWF-induced GPIb-IX-mediated activation of integrin αIIbβ3 (Oregon green-labeled fibrinogen binding, flow cytometry). The format is cell-based, Chinese Hamster. The conditions noted are these: 123 cells; preliminary studies, data not shown. The protocol: Human PKG Iβ cDNA was cloned by RT-PCR, using human platelet mRNA as templates. Sequence of the human PKG Iβ cDNA fragment matches the published sequence. Cloning of human PKG Iα cDNA was described previously. PKG Iα or Iβ in pCDNA3.1/Zeo+vector was transfected into 123 cells (CHO cells expressing recombinant human CPIb-IX and integrin αIIbβ3 using Lipofectamine plus (BRL). Expression of PKG was assessed by Western blotting with an antihuman PKG I antibody (Calbiochem). The kinase activity of the expressed enzymes was measured in cell homogenates using BPDEtide (Calbiochem) as substrate as detailed previously. vWF-induced GPIb-IX-mediated activation of integrin αIIbβ3 was examined by flow cytometry analysis of Oregon green-labeled fibrinogen binding to integrln αIIbβ3 as described previously. Briefly, cells were detached from tissue culture plate using 0.5 mM EDTA, washed at 4° C. and resuspended in modified Tyrode's solution. Cells then were incubated with Oregon green-labeled fibrinogen (20 μg/ml) in the presence of ristocetin and vWF at 22° C. for 30 minutes, and analyzed by FACScalibur flow cytometer. Nonspecific binding of fibrinogen was estimated by measuring fibrinogon binding in the presence of a specific integrin inhibitor RGDS (1 mM) (see Refs. 13 and 43-45).
In FIG. 1A, CHO cells expressing GPLb-JX and integrin αIIbβ3 (123 cells) were transfected with cDNA encoding PKGIα or vector. Expression of PKG Ia in 123 cells was detected by Western blotting with an anti-human PKG I antibody (Insert), and recombinant PKG activity was determined in the absence or presence of 20 μM 8-bromo-cGMP as previously described. Results are expressed as mean +SD (n=3). For FIGS. 1B and 1C, reconstitution of GPIb-IX-mediated integrin activation in CHO cells was published (see Ref. 13). […] Cells were analyzed by flow cytometry. Quantitative results from three experiments are expressed as fibrinogen binding indices (total bound fluorescence (Fg)/nonspecifically bound fluorescence (Fg+RGDS)), and shown in FIG. 1B (mean ±SD).
In general terms: Flow cytometry measures light scatter and fluorescence of single cells or particles in a stream.

The subject of data set [4] is platelets. As to the kind of experiment: Low-dose α-thrombin-induced aggregation of washed platelets. The format is cell-based, human. The protocol: as §1
In FIG. 5A, washed platelets were preincubated with 40 pg/mi anti-GPIba monoclonal antibody SZ2, integrin inhibitor RGDS, or inhibitors of PKG, KT5823 (2 μM) or Rp-8pCPT-cGMP (0.2 mM) (Calbiochem), for 5 min. Platelets also were preincubated with DMSO (vehicle for KT5823), KT5720 or buffer (Control) as controls. α-Thrombin (0.05 units/mi) then was added to induce platelet aggregation. Nonspecific JgG and RGES peptides also were examined as additional controls, but had no effect (not shown). In FIG. 5B, a subthreshold dose of thrombin was added to platelets immediately followed by addition of PKG activator 8-bromo-cGMP or buffer (Control). Shown in the figure are the representative results of at least three experiments.
as §2, §3

In data set [5] the test system is platelets. Particulars: agonists ADP, collagen, A23 187, U46619, platelet activating factor; Ref. 38; cited from earlier work.
The conditions of data set [6]: clinical reports, Refs. 39-42; cited from earlier work.
Data set [7] deals with platelets. As to the kind of experiment: Platelet aggregation/activation in vitro with sildenafil by itself. The format is cell-based, human.
For data set [8], the system named is CHO cells expressing human platelet receptors. As to the kind of experiment: Cell adhesion to immobilized vWF under flow. The format is cell-based, Chinese Hamster. Particulars: for stable adhesion of vector-transfected 123 cells to vWF under flow / stable adhesion of PKG-expressing 123 cells (123PKG) to vWF under flow: FIG. 2C, sildenafil 5 μM; for stable adhesion of PKG-expressing 123 cells (123PKG) to vWF under flow: RGDS 4 mM, 8-bromo-cGMP not shown. The procedure: CHO cells expressing human platelet receptors were resuspended in modified Tyrode's buffer, pH 7.4, containing 1 mg/mi of bovine serum albumin (BSA) (see Ref. 46), and final cell count was 5×10^5/ml. […] Purified human vWF (10 μg/ml in 0.1 M NaHCO3, pH 8.3) was added to glass microcapillary tubes (inner diameter of 1.33 mm and a length of 7.2 cm), and incubated at 4° C. for 20 h. The vWF-coated microcapillary tubes then were incubated with 5% BSA. After washing, the cell suspension was aspirated through the tube by a syringe pump (Harvard Apparatus Inc.) at desired shear rates for 1.2 minutes and washed with modified Tyrode's buffer for additional 10 minutes at the same shear rates to remove transiently adherent cells. The experiments were continuously recorded on videotape using a video cassette recorder (model 9500, Sony). The number of stably adherent cell on immobilized vWF was counted on images obtained at 20 randomly selected positions in the vWF-coated tubes.
In FIGS. 2A and B, vWF-coated capillary tubes were perfused with equivalent numbers (5×10^5/ml) of CHO cells expressing recombinant GPLb-JX alone (1b9), integrin αIIbβ3 alone (2b3a), both GPIb-IX and integrin αIIbβ3 (123) or expressing GPJb-JX, integrin α^IIbβ3 and PKG Ia (123PKG) at a shear rates of 800 s^−1 (A) or 1500 s^−1 (B) for 1.2 minutes, and then perfused with the modified Tyrodes buffer for 10 minutes at the same shear rates to wash out transient adherent cells. The expenments were recorded in real time. Cells stably adherent to vWF-coated capillary tubes at 20 randomly selected locations were counted.
In FIG. 2C, vector-transfected 123 cells (123) or 123PKG cells also was perfused into vWF-coated glass capillary tubes as described in FIG. 2A in the absence or presence (+RGDS) of an integrin inhibitor RGDS peptide (4 mM) and in the absence (Control) or presence of cGMP-enhancing drug, sildenafil (5 μM). […] The experiments were repeated at least three times.

Where [9] appears, read: identical flow conditions, not shown.

Molecules are shown by their SMILES. Entries after “also recorded” stand apart in the source; their conditions may differ.

`COC(=O)[C@@]1(OC)C[C@H]2O[C@]1(C)n1c3ccccc3c3c4c(c5c6ccccc6n2c5c31)C(=O)N(C)C4` [KT5823]: in the data set with platelets [1], the “platelet spreading on a vWF-coated surface” value is reported as “inhibited”. Also, in the data set on platelets [2] (PRP preincubated 37° C. 5 min, KT5823 2 pM, Rp-8pCPT-cGMP 0.2 μM, KT5720 2 pM [sic], FIG. 3A), the “integrin-dependent second wave of platelet aggregation induced by ristocetin” value is given as “abolished”. Besides, the GPIb-IX-mediated integrin activation result in data set [3] is “inhibited”. For the same molecule, the “platelet aggregation induced by 0.05 units/ml α-thrombin” value in the data set on platelets [4] (washed platelets preincubated 5 min, KT5823 2 μM, Rp-8pCPT-cGMP 0.2 mM, SZ2 40 pg/ml [sic], FIG. 5A) is “inhibited”.
Turning to `CCCc1nn(C)c2c(=O)[nH]c(-c3cc(S(=O)(=O)N4CCN(C)CC4)ccc3OCC)nc12` [sildenafil], the “platelet activation in vitro, sildenafil alone” value in the data set with platelets [5] is “did not inhibit; also recorded: does not inhibit”. Further, the “thrombotic events (myocardial infarction and cerebral thrombosis) in some patients” value in data set [6] is “associated with severe thrombotic events”. Also, in the data set on platelets [2] (PRP, agent added with subthreshold ristocetin (1 mg/mm [sic]) (or botrocetin), FIGS. 3B, 6A), the “platelet aggregation together with a subthreshold concentration of ristocetin” value is “induces platelet aggregation”. Besides, the “platelet aggregation in vitro” value in the data set with platelets [7] (sildenafil, not shown) is “did not inhibit”. Moreover, the “platelet activation by sildenafil by itself” value with platelets [7] (without platelet agonist) is reported as “not sufficient to cause platelet activation”. Moreover, the “platelet aggregation together with a subthreshold concentration of thrombin” value in the data set with platelets [4] (washed platelets, thrombin 0.02 units/ml, FIGS. 5B, 6B) was “induces platelet aggregation”. Besides, in data set [8], the “stable adhesion of vector-transfected 123 cells to vWF under flow” value is recorded as “enhancing effects” and the “stable adhesion of PKG-expressing 123 cells (123PKG) to vWF under flow” value is reported as “enhanced”. Moreover, in data set [8] (listed as Sildenafil), the “stable adhesion of PKG-expressing 123 cells (123PKG) to vWF under flow” value was “significantly increased” and the “stable adhesion of vector-transfected 123 cells to vWF under flow” value is given as “significantly increased”. In addition, in data set [8] (setting [9]), the “stable adhesion of 1b9 cells (GPIb-IX alone) under flow” value is on record as “no effect” and the “stable adhesion of 2b3a cells (integrin αIIbβ3 alone) under flow” value is listed as “no effect”.

The values are drawn from US20040087539A1, “Method of treating conditions related to platelet activity” (priority 2003, published 2004).
